Source: patent US12528776B2, “Composition and method for treating dermatological disorders using retinamides” (UNIVERSITY OF MARYLAND, Baltimore, priority 2019, dated 2026)
Where two headings read alike, the source gives them in different places.

What was measured:
[1] = tested on: immortalized human sebocytes SZ95; conditions: after 9 days; cited from earlier work
[2] = tested on: retinoic acid metabolism; conditions: racemate versus enantiomers; cited from earlier work
[3] = tested on: adult normal human keratinocytes (NHAKs); assay: Growth inhibition (MTT) of adult normal human keratinocytes; assay type: cell-based; conditions: for GI50: Homo sapiens, Keratinocyte; for fold more potent inhibition of growth than 13-CRA (isotretinoin), NHAKs: ratio of GI50 values versus 13-CRA
[4] = tested on: reconstructed human epidermis (RHE); assay: Reconstructed human epidermis (RHE) histology, H and E; assay type: cell-based; conditions: 0.02% topical, 3 days at 37° C.
Method: RHE tissues were treated with indicated concentration and incubated for 3 days at 37° C. Following treatment tissues were fixed, sectioned and stained with H and E. Representative images from three independent experiments are shown in FIG. 5A to 5E. RHE tissues were untreated (FIG. 5A) or treated with vehicle (ethanol) (FIG. SB), ATRA 0.02% solution (FIG. 5C), 13-CRA 0.02% (FIG. 5D); and VNLG-152 0.02% (FIG. 5E). […] In the figures, “SC” refers to “stratum corneum”, “SG” to “stratum granulosum”, “SS” to “stratum spinosum”, and “SB” to “stratum basale”.

[5] = tested on: NHAK cells; assay: Anti-proliferative effect of ATRA or 13-CRA alone or combined with low-dose VNLG-152; assay type: cell-based, human; conditions: for GI50: Homo sapiens, alone, 0.1 to 10,000 nM, continuous incubation, read-out: GI50, ATRA or 13-CRA alone (Example 2); for fold enhancement of anti-proliferative activity (GI50) by VNLG-152: in combination with 40 nM VNLG-152, NHAK
[6] = tested on: SEB-1 human primary sebocytes; assay: Growth inhibition (MTT) of SEB-1 sebocytes; assay type: cell-based; conditions: for GI50: Homo sapiens, 168 h, MTT assay, 7 days treatment; for fold more potent inhibition of growth than 13-CRA (isotretinoin), SEB-1: ratio of GI50 values versus 13-CRA
Method: Human adult keratinocytes (pooled) (ZenBio Inc., Research Triangle Park, NC) were cultured in human adult keratinocyte growth medium (KM-2). The SEB-1 human primary sebocytes (ZenBio Inc., Research Triangle Park, NC) were cultured and maintained in sebocyte growth medium. Cells were plated 1 day prior to treatment. Retinamides (VNLG-152 and VNHM-1-73) and other clinically relevant retinoids (13-CRA, 9-CRA, and ATRA) were treated at indicated concentration and time periods and incubated at 37° C. in 5% CO2.
Assays for normal human adult keratinocytes (NHAKs) and human SEB-1 sebocytes growth inhibition were performed as described previously^20. Adult human keratinocytes or sebocytes were treated with VNLG-152,VNHM-1-73 and other retinoids for 7 days. MTT assay was performed at the end of the experiment. Results represent the mean±standard deviation of three independent experiments.

[7] = tested on: NHAK; assay: TUNEL (in situ cell death detection) apoptosis assay; assay type: cell-based, human; conditions: 72 hours
Method: (§1) For acridine orange/ethidium bromide (AO/EB) dual staining assay, keratinocytes were treated with indicated concentrations of the compounds for 24.48 and 72 h. At the end of incubation period, 100 μl of 1:1 ratio of acridine orange (0.1%) and ethidium bromide (0.2%) in PBS were added to the cells and incubated at 37° C. and 5% CO2 for 30 min. Cells were then immediately analyzed using Nikon TE2000 fluorescence microscope. Assessment of the apoptotic potential by in situ Cell Death Detection assay was done as per protocol of the manufacturer (Roche Diagnostics).
The apoptosis inducing potential of VNLG-152 was evaluated by TUNEL assay in NHAK. The individual cell lines as indicated were seeded in 8 well chamber slides, and treated with indicated concentrations and times of 13-CRA, ATRA and VNLG-/152. After 72 hours, the plates were analyzed for TUNEL positive staining. Statistical analysis was performed with ANOVA two factor with replication (*P<0.05, **P<0.01, ***P<0.001).

[8] = tested on: castration-resistant prostate cancer xenograft; conditions: in vivo; cited from earlier work
[9] = tested on: keratinocytes; assay: Acridine orange/ethidium bromide (AO/EB) dual staining apoptosis assay; assay type: cell-based, human; conditions: VNLG-152 0.2 μM, 48 and 72 h; versus 13-CRA and ATRA 5 and 10 μM
Method: as §1
In FIGS. 3A and 3B, the plates were analyzed for early apoptotic and viable cells using acridine orange/ethidium bromide staining. […] In FIG. 3C, the bars are means of three replicate determinations plus standard deviations. Statistical analysis was performed with ANOVA two factor with replication (*P<0.05, **P<0.01, ***P<0.001).

[10] = tested on: keratin 10 (K10), keratin 19 (K19) and filaggrin expression in RHE cultures; assay: RHE immunostaining for K10, K19 and filaggrin; conditions: 0.02% topical, 3 days, immunolabelling
[11] = tested on: mTORC1/4E-BP1/p70SK6 signaling; conditions: cited from earlier work
[12] = tested on: triple negative breast cancer (TNBC) tumor; conditions: in vivo; cited from earlier work
[13] = tested on: RARα,β,γ receptors; conditions: significantly less potent than ATRA; cited from earlier work
[14] = read-out: GI50 values in inhibiting NHAKs and sebocytes (range over both cell types)
[15] = 168 h, MTT assay, 7 days treatment, read-out: GI50, growth and proliferation of adult keratinocytes (NHAKs)

SMILES: CC1=C(/C=C/C(C)=C\C=C\C(C)=C\C(=O)O)C(C)(C)CCC1 [Compound 9-CRA, 9-cis-retinoic acid]
- reduction of proliferation of SZ95 sebocytes [1]: approximately 50%

SMILES: COC(=O)/C=C(C)/C=C/C=C(C)/C=C/C1=C(C)C(n2ccnc2)CCC1(C)C (racemic) [(±)-VN-12-1]
- fold more potent than either pure (4S)-(+)- or (4R)-(−)- enantiomer [2]: up to 28 fold

SMILES: CC1=C(/C=C/C(C)=C/C=C/C(C)=C\C(=O)O)C(C)(C)CCC1 [Compound 13-CRA, 13-cis-retinoic acid]
- GI50 [3, 14]: 26000 to 96400 nM
- RHE morphology after topical treatment [4]: loss of keratohyalin granules in the upper granular layer
- GI50 [5]: 75800 nM
- fold enhancement of anti-proliferative activity (GI50) by VNLG-152 [5]: 123 fold
- reduction of proliferation of SZ95 sebocytes [1]: approximately 50%

SMILES: CC1=C(/C=C/C(C)=C/C=C/C(C)=C\C(=O)NCc2ccc(O)cc2)C(C)(C)CCC1n1ccnc1 (centres unmarked) [VNHM-1-73, (2Z,4E,6E,8E)-9-(3-(1H-imidazol-1-yl)-2,6,6-trimethylcyclohex-1-en-1-yl)-N-(4-hydroxybenzyl)-3,7-dimethylnona-2,4,6,8-tetraenamide]
- GI50 [3, 15]: 1280 nM
- fold more potent inhibition of growth than 13-CRA (isotretinoin), NHAKs [3]: 59.3 fold
- GI50 [6]: 467 nM
- fold more potent inhibition of growth than 13-CRA (isotretinoin), SEB-1 [6]: 85 fold

SMILES: CC1=C(/C=C/C(C)=C/C=C/C(C)=C/C(=O)Nc2ccc(F)cc2)C(C)(C)CCC1n1ccnc1 (centres unmarked) [VNLG-152]
- induction of apoptosis versus control (TUNEL) ([7]; 0.2 μM): ~50%
- induction of apoptosis (TUNEL) ([7]; 1 μM): ~84%
- GI50 [3, 15]: 239 nM
- GI50 [3, 14]: 66 to 239 nM
- fold more potent inhibition of growth than 13-CRA (isotretinoin), NHAKs [3]: 317.4 fold
- RHE morphology after topical treatment [4]: loss of keratohyalin granules in the upper granular layer
- effect on castration-resistant prostate cancer xenograft growth [8]: suppress EMT and castration-resistant prostate cancer xenograft growth
- GI50 [6]: 66 nM
- fold more potent inhibition of growth than 13-CRA (isotretinoin), SEB-1 [6]: 603 fold
- times more potent than 13-CRA in reducing the growth of SEB-1 sebocytes ([6]; versus 13-CRA): about 35 times
- pro-apoptotic effect, AO/EB dual staining [9]: strong pro-apoptotic effects
- expression of K10 and filaggrin in sb and sg layers of RHE [10]: reduced the expression of these proteins
- anti-proliferative effect at low dose ([5]; 40 nM VNLG-152 alone, NHAK): < 10%
- inhibition of mTORC1 signaling [11]: potently inhibits mTORC1/4E-BP1/p70SK6 signaling
- effect on TNBC tumor growth and metastasis [12]: potently inhibits triple negative breast cancer (TNBC) tumor growth and metastasis

SMILES: CC1=C(/C=C/C(C)=C/C=C/C(C)=C/C(=O)O)C(C)(C)CCC1 [ATRA, all-trans-retinoic acid]
- RHE morphology after topical treatment [4]: loss of keratohyalin granules in the upper granular layer
- expression of K10 and filaggrin in sb and sg layers of RHE [10]: reduced the expression of these proteins
- GI50 [5]: 63100 nM
- fold enhancement of anti-proliferative activity (GI50) by VNLG-152 [5]: 200 fold
- reduction of proliferation of SZ95 sebocytes [1]: approximately 50%

SMILES: CC1=C(/C=C/C(C)=C/C=C/C(C)=C/C(=O)O)C(C)(C)CCC1n1ccnc1 (centres unmarked) [VN/14-1]
- RAR binding and activation [13]: binds and activates the RARα,β,γ receptors
